target: human PDE4B1 (Homo sapiens (Human), UniProt Q07343); assay: cAMP HTRF assay to determine the activity of hPDE4B1; format: biochemical; details: IC50 inhibition of PDE4B; human recombinant PDE4B1, cAMP HTRF assay
Procedure, shortened: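 Recombinant human PDE4B1 expressed in Sf9 cells (4.8 U) was incubated with 40 nM cAMP for 30 min at room temperature in Tris buffer, pH 7.8, with MgCl2, DTT and Tween 20. HTRF detection of remaining cAMP followed, with 1 mM IBMX stop, read 60 min later as the 665/620 nm ratio. Results are % inhibition versus control.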

Sequence of human PDE4B1 (Q07343 whole entry): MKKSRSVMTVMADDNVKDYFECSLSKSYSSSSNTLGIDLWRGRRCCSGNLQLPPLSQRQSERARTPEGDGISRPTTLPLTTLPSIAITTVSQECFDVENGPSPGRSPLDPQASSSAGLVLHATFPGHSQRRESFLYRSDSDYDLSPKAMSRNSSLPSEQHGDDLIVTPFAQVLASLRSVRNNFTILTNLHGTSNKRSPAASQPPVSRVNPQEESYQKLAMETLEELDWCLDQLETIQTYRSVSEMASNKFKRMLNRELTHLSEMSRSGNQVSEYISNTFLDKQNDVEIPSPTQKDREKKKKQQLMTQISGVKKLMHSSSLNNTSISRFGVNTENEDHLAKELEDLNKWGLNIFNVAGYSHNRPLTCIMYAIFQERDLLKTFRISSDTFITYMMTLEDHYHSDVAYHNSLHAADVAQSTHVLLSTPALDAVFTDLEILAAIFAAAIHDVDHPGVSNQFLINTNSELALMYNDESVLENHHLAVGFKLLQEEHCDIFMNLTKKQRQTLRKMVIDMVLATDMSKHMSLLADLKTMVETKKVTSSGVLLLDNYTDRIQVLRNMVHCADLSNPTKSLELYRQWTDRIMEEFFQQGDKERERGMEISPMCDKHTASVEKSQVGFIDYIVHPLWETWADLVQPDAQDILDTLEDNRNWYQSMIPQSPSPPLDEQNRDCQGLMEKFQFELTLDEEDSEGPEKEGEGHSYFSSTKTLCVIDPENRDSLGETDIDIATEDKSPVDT

| Compound | IC50 |
| --- | --- |
| Cc1ncccc1-c1cnc(N2CC3(CC3)c3ccc(C(=O)N4CCOCC4)cc32)nc1 [Compound 167, [1-[5-(2-Methyl-pyridin-3-yl)-pyrimidin-2-yl]-spiro[1,2-dihydro-indole-3,1′-cyclopropane]-6-yl]-morpholin-4-yl-methanone] | < 0.1 µM |
| O=C(c1cc2c(cn1)C1(CC1)CN2c1ncc(-c2ccccc2F)cn1)N1CCOCC1 [Compound 168, [1-[5-(2-Fluorophenyl)-pyrimidin-2-yl]-spiro[1,2-dihydro-pyrrolo[3,2-c]pyridine-3,1′-cyclopropane]-6-yl]-morpholin-4-yl-methanone] | 0.1 to 1 µM |
| O=C(c1cnc2c(c1)N(c1ncc(-c3ccccc3F)cn1)CC21CC1)N1CCOCC1 [Compound 169, [1-[5-(2-Fluorophenyl)-pyrimidin-2-yl]-spiro[1,2-dihydro-pyrrolo[3,2-b]pyridine-3,1′-cyclopropane]-6-yl]-morpholin-4-yl-methanone] | 0.1 to 1 µM |
| O=C(c1ccc2c(n1)N(c1ncc(-c3ccccc3F)cn1)CC21CC1)N1CCOCC1 [Compound 170, [1-[5-(2-Fluorophenyl)-pyrimidin-2-yl]-spiro[1,2-dihydro-pyrrolo[2,3-b]pyridine-3,1′-cyclopropane]-6-yl]-morpholin-4-yl-methanone] | < 0.1 µM |
| Cn1ccc(-c2cnc(N3CC4(CC4)c4ccc(C(=O)N5CC[C@@H](N)C5)cc43)nc2)c1 [Compound 172, [(3R)-3-Amino-pyrrolidin-1-yl]-[1-[5-(1-methyl-1H-pyrrol-3-yl)-pyrimidin-2-yl]-spiro[1,2-dihydro-indole-3,1′-cyclopropane]-6-yl]-methanone] | < 0.1 µM |
| Cn1cc(-c2cnc(N3CC4(CC4)c4ccc(C(=O)N5CC[C@@H](N)C5)cc43)nc2)cn1 [Compound 173, [(3R)-3-Amino-pyrrolidin-1-yl]-[1-[5-(1-methyl-1H-pyrazol-4-yl)-pyrimidin-2-yl]-spiro[1,2-dihydro-indole-3,1′-cyclopropane]-6-yl]-methanone] | < 0.1 µM |
| CN(C)C(=O)c1ccc2c(c1)N(c1ncc(-c3cccnc3F)cn1)CC21CC1 [Compound 174, 1-[5-(2-Fluoro-pyridin-3-yl)-pyrimidin-2-yl]-N,N-dimethyl-spiro[1,2-dihydro-indole-3,1′-cyclopropane]-6-carboxylic acid amide] | < 0.1 µM |
| O=C(c1ccc2c(c1)N(c1ncc(-c3ccccn3)cn1)CC21CC1)N1CCCC1 [Compound 175, [1-(5-Pyridin-2-yl-pyrimidin-2-yl)-spiro[1,2-dihydro-indole-3,1′-cyclopropane]-6-yl]-pyrrolidin-1-yl-methanone] | < 0.1 µM |
| O=C1CN(C(=O)c2ccc3c(c2)N(c2ncc(-c4cccnc4F)cn2)CC32CC2)CCN1 [Compound 176, 4-[1-[5-(2-Fluoro-pyridin-3-yl)-pyrimidin-2-yl]-spiro[1,2-dihydro-indole-3,1′-cyclopropane]-6-carbonyl]-piperazin-2-one] | < 0.1 µM |
| COc1ccsc1-c1cnc(N2CC3(CC3)c3ccc(C(=O)N4CCNC(=O)C4)cc32)nc1 [Compound 177, 4-[1-[5-(3-Methoxy-thiophen-2-yl)-pyrimidin-2-yl]-spiro[1,2-dihydro-indole-3,1′-cyclopropane]-6-carbonyl]-piperazin-2-one] | < 0.1 µM |
| O=C(c1ccc2c(c1)N(c1ncc(Cc3ccccc3F)cn1)CC21CC1)N1CCOCC1 [Compound 178, [1-[5-[(2-Fluorophenyl)-methyl]-pyrimidin-2-yl]-spiro[1,2-dihydro-indole-3,1′-cyclopropane]-6-yl]-morpholin-4-yl-methanone] | 0.1 to 1 µM |
| O=C(c1ccc2c(c1)N(c1ncc(Oc3ccccc3F)cn1)CC21CC1)N1CCOCC1 [Compound 179, [1-[5-(2-Fluoro-phenoxy)-pyrimidin-2-yl]-spiro[1,2-dihydro-indole-3,1′-cyclopropane]-6-yl]-morpholin-4-yl-methanone] | 0.1 to 1 µM |
| O=C1CN(C(=O)c2ccc3c(c2)N(c2ncc(-c4ccccn4)cn2)CC32CC2)CCN1 [Compound 180, 4-[1-(5-Pyridin-2-yl-pyrimidin-2-yl)-spiro[1,2-dihydro-indole-3,1′-cyclopropane]-6-carobnyl]-piperazin-2-one] | < 0.1 µM |
| COc1ccnc(-c2cnc(N3CC4(CC4)c4ccc(C(=O)N5CCOCC5)cc43)nc2)c1 [Compound 182, [1-[5-(4-Methoxy-pyridin-2-yl)-pyrimidin-2-yl]-spiro[1,2-dihdyro-indole-3,1′-cyclopropane]-6-yl]-morpholin-4-yl-methanone] | < 0.1 µM |
| Cc1ccnc(-c2cnc(N3CC4(CC4)c4ccc(C(=O)N5CCOCC5)cc43)nc2)c1 [Compound 192, [1-[5-(4-Methyl-pyridin-2-yl)-pyrimidin-2-yl]-spiro[1,2-dihydro-indole-3,1′-cyclopropane]-6-yl]-morpholin-4-yl-methanone] | < 0.1 µM |
| Morpholin-4-yl-[1-(5-pyridazin-3-yl-pyrimidin-2-yl)-spiro[1,2-di-hydro-indole-3,1′-cyclopropane]-6-yl]-methanone [Compound 191] | < 0.1 µM |
| Morpholin-4-yl-[1-(5-pyridazin-4-yl-pyrimidin-2-yl)-spiro[1,2-dihydro-indole-3,1′-cyclopropane]-6-yl]-methanone [Compound 200] | < 0.1 µM |
| Morpholin-4-yl-[1-(5-pyrimidin-4-yl-pyrimidin-2-yl)-spiro[1,2-di-hydro-indole-3,1′-cyclopropane]-6-yl]-methanone [Compound 190] | < 0.1 µM |
| Morpholin-4-yl-[1-[5-[4-(trifluoromethyl)-pyridin-2-yl]-pyrimidin-2-yl]-spiro[1,2-dihydro-indole-3,1′-cyclopropane]-6-yl]-methanone [Compound 195] | < 0.1 µM |
| N-(2-Hydroxy-ethyl)-1-[5-(3-methoxyphenyl)-pyrimidin-2-yl]-N-methyl-spiro[1,2-dihydro-indole-3,1′-cyclopropane]-6-carboxylic acid amide [Compound 197] | < 0.1 µM |
| N-[(3R)-1-[1-(5-Phenyl-pyrimidin-2-yl)-spiro[1,2-di-hydro-indole-3,1′-cyclopropane]-6-carbonyl]-pyrrolidin-3-yl]-acetamide [Compound 203] | 1 to 10 µM |

Further lines, results first:

| IC50 | Compound |
| --- | --- |
| < 0.1 µM | CN(CCO)C(=O)c1ccc2c(c1)N(c1ncc(-c3cnn(C)c3)cn1)CC21CC1 [Compound 199, N-(2-Hydorxy-ethyl)-N-methyl-1-[5-(1-methyl-1H-pyrazol-4-yl)-pyrimidin-2-yl]-spiro[1,2-dihydro-indole-3,1′-cyclopropane]-6-carboxylic acid amide] |
| < 0.1 µM | CC(C)(O)c1ccc(-c2cnc(N3CC4(CC4)c4ccc(C(=O)N5CCOCC5)cc43)nc2)s1 [Compound 207, [1-[5-[5-(1-Hydroxy-1-methyl-ethyl)-thiophen-2-yl]-pyrimidin-2-yl]-spiro[1,2-dihydro-indole-3,1′-cyclopropane]-6-yl]-morpholin4--yl-methanone] |
| < 0.1 µM | CN(C)c1ccnc(-c2cnc(N3CC4(CC4)c4ccc(C(=O)N5CCOCC5)cc43)nc2)c1 [Compound 208, [1-[5-(4-Dimethylamino-pyridin-2-yl)-pyrimidin-2-yl]-spiro[1,2-dihydro-indole-3,1′-cyclopropane]-6-yl]-morpholin-4-yl-methanone] |
| < 0.1 µM | Cc1ccnc(-c2cnc(N3CC4(CC4)c4ccc(C(=O)N(C)CCO)cc43)nc2)c1 [Compound 210, N-(2-Hydroxy-ethyl)-N-methyl-1-[5-(4-methyl-pyridin-2-yl)-pyrimidin-2-yl]-spiro[1,2-dihydro-indole-3,1′-cyclopropane]-6-carboxylic acid amide] |
| < 0.1 µM | COc1cccc(-c2cnc(N3CC4(CC4)c4ccc(C(=O)N(C)CCO)cc43)nc2)n1 [Compound 211, N-(2-Hydroxy-ethyl)-1-[5-(6-methoxy-pyridin-2-yl)-pyrimidin-2-yl]-N-methyl-spiro[1,2-dihydro-indole-3,1′-cyclopropane]-6-carboxylic acid amide] |
| < 0.1 µM | COc1cccc(-c2cnc(N3CC4(CC4)c4ccc(C(=O)N5CC6CC5CN6)cc43)nc2)c1 (centres unmarked) [Compound 212, (2,5-Diazabicyclo[2.2.1]heptan-2-yl)-[1-[5-(3-methoxyphenyl)-pyrimidin-2-yl]-spiro[1,2-dihydro-indole-3,1′-cyclopropane]-6-yl]-methanone; 2,2,2-trifluoro-acetic acid] |
| < 0.1 µM | Cc1cc(-c2cnc(N3CC4(CC4)c4ccc(C(=O)N(C)CCO)cc43)nc2)ccn1 [Compound 214, N-(2-Hydroxy-ethyl)-N-methyl-1-[5-(2-methyl-pyridin-4-yl)-pyrimidin-2-yl]-spiro[1,2-dihydro-indole-3,1′-cyclopropane]-6-carboxylic acid amide] |
| 1 to 10 µM | O=C(O)C1CCN(C(=O)c2ccc3c(c2)N(c2ncc(-c4ccccc4F)cn2)CC32CC2)CC1 [Compound 215, 1-[1-[5-(2-Fluorophenyl)-pyrimidin-2-yl]-spiro[1,2-dihydro-indole-3,1′-cyclopropane]-6-carbonyl]-piperidine-4-carboxylic acid] |
| 1 to 10 µM | NC(=O)C1CCN(C(=O)c2ccc3c(c2)N(c2ncc(-c4ccccc4F)cn2)CC32CC2)CC1 [Compound 216, 1-[1-[5-(2-Fluorophenyl)-pyrimidin-2-yl]-spiro[1,2-dihydro-indole-3,1′-cyclopropane]-6-carbonyl]-piperidine-4-carboxylic acid amide] |
| 1 to 10 µM | COCC1CCN(C(=O)c2ccc3c(c2)N(c2ncc(-c4ccccc4F)cn2)CC32CC2)CC1 [Compound 217, [1-[5-(2-Fluorophenyl)-pyrimidin-2-yl]-spiro[1,2-dihydro-indole-3,1′-cyclopropane]-6-yl]-[4-(methoxymethyl)-piperidin-1-yl]-methanone] |
| 0.1 to 1 µM | O=C(c1ccc2c(c1)N(c1ncc(-c3ccccc3F)cn1)CC21CC1)N1CC2CC1CN2CCO (centres unmarked) [Compound 218, [1-[5-(2-Fluorophenyl)-pyrimidin-2-yl]-spiro[1,2-dihydro-indole-3,1′-cyclopropane]-6-yl]-[5-(2-hydroxy-ethyl)-2,5-diazabicyclo[2.2.1]heptan-2-yl]-methanone] |

Reference: patent US10189854B2, “Substituted pyrimidine compounds” (Grünenthal GmbH, priority 2014, dated 2019)
